# In patent publication US12311056B2, “Composition and method for treatment of neuropsychiatric disorders” (Duke University, priority 2015, dated 2025):
# Tests used:
# 5-HT2C receptors = molecular target: T1, 5-HT2C receptors (Homo sapiens, UniProt P28335); conditions: cited from earlier work
# T1 sequence (P28335 33-458): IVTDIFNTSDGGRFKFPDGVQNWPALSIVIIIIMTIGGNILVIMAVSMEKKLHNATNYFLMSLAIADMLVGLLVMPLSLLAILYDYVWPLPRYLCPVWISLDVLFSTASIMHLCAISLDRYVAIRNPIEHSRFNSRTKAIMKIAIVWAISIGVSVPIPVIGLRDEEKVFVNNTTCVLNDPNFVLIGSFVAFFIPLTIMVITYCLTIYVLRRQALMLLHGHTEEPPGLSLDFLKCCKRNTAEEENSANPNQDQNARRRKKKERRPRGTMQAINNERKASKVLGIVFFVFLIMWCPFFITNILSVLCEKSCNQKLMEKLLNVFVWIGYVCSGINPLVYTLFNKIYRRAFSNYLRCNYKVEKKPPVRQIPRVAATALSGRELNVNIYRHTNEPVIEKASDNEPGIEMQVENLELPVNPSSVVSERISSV
# adrenergic α2 receptors = conditions: cited from earlier work
# 5-HT1A receptors = molecular target: T2, 5-HT1A receptors (Homo sapiens, UniProt P08908); conditions: cited from earlier work
# T2 sequence (P08908 1-422): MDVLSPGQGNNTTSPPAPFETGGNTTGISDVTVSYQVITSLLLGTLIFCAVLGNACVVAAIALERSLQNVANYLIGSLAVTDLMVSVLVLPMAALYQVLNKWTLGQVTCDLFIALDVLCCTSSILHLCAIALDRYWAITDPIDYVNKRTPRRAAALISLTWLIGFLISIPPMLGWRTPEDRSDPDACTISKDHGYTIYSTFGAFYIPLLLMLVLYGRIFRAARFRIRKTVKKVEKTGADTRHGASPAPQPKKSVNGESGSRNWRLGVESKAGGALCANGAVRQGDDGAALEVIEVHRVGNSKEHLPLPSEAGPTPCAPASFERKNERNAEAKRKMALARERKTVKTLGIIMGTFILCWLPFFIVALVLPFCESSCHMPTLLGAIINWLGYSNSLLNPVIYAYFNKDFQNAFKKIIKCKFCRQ
# 5-HT2A receptors = 5-HT2A receptors (Homo sapiens, UniProt P28223); conditions: cited from earlier work
# Chain of 5-HT2A receptors (P28223 whole entry): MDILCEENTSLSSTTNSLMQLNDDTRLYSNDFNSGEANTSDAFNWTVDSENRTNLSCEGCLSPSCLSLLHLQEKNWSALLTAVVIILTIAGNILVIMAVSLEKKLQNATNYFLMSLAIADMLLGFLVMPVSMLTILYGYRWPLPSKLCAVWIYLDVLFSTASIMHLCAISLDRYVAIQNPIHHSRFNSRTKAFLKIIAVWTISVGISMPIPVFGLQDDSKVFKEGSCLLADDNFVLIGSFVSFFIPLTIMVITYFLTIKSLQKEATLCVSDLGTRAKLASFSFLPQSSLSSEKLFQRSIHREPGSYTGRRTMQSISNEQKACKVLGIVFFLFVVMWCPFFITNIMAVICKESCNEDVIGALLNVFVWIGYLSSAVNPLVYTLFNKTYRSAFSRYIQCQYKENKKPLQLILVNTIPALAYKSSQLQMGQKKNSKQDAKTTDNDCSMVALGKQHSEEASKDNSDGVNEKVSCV
# histamine H1 receptors = histamine H1 receptors (Homo sapiens, UniProt P35367); conditions: cited from earlier work
# Chain of histamine H1 receptors (P35367 whole entry): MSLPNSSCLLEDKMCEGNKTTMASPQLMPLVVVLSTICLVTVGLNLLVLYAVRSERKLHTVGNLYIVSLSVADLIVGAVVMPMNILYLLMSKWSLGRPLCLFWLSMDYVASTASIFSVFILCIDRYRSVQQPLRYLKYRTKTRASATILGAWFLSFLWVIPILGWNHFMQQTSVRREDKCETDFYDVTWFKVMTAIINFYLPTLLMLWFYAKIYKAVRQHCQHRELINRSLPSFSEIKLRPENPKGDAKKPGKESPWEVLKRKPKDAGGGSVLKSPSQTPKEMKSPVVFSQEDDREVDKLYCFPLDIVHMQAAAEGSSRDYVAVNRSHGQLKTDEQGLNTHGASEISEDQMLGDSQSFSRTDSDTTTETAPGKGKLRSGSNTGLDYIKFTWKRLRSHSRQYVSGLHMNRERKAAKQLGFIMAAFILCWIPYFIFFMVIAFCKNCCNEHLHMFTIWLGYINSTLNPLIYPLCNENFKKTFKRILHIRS
# 5-HT3 receptors = conditions: cited from earlier work
# rat animal models of LID = assay: Levodopa-induced abnormal involuntary movement (LIAIM) in 6-OHDA-lesioned rat models of LID; type: in vivo; conditions: 2 weeks s.c. treatment; challenge with 25 mg/kg levodopa two days after last treatment; compared to L_SS
# Protocol: First, the dopaminergic neurotoxin 6-hydroxydopamine (6-OHDA) was injected into the right medial forebrain bundle of rats to induce unilateral lesions of the nigrostriatal DA pathway. Starting 3 weeks after 6-OHDA lesion, animals were treated twice daily with levodopa methyl ester (25 mg/kg, i.p., bid immediately preceded by 6.5 mg/kg, i.p. benserazide) for 3 weeks to establish LIAIM. Three hour LIAIM scores were quantified twice a week during the levodopa treatment using standard LIAIM rating scales.
# Following LIAIM establishment, animals with combined limb, axial and orolingual LIAIM severity scores>25 were treated with one of the 3 treatment regimens for 2 weeks: (1) pergolide (0.1 mg/kg) followed 3.5 hours later by the 5-HT2A/2C antagonist ketanserin (1 mg/kg) [L_PK group]; (2) pergolide+saline 3.5 hours later [L_PS Group]; and (3) DMSO (1% in saline)+saline 3.5 hours later [L_SS]. All injections were given subcutaneously.
# Two days after the last L_PK, L_PS or L-SS treatment, all animals were challenged with 25 mg/kg levodopa and their LIAIM scores were again quantified.
# [1] = PK analysis of [MPh-IR+Ond-PR2] in the Phase 2A study (24-hour blood PK samples, Day 1 and Day 14)
# Excerpt: Ond-PR2 is a bead formulation prepared from ondansetron as the active pharmaceutical ingredient (API). MPh-IR is an immediate-release generic formulation of methylphenidate. [MPh-IR+Ond-PR2] is a single encapsulated dosage form consisting of MPh-IR and Ond-PR2 as Components 1 and 2, respectively. Following in vitro dissolution testing and PK and safety determinations in normal healthy volunteers (Phase 1 trial), we conducted a proof-of-concept, randomized, double-blind, placebo-controlled Phase 2A safety/efficacy clinical trial. A total of 48 patients residing in a residential program and meeting the DSM-4 criteria for primary psychostimulant abuse were screened, and 30 qualifying subjects were randomized into either [MPh-IR+Ond-PR2] or placebo treatment group.
# Single capsules containing either [MPh-IR+Ond-PR2] or dextrose (placebo) were administered once a day for 14 days. Subjects also underwent single fMRI-based assessments 1-7 days before the first study dosing (pre-treatment) and again between Day 3 and 7 days after the last dosing (i.e., post-treatment assessment was performed after complete drug washout). Outcome measures for group comparisons were behavioral rating scales and blood-oxygenation-level-dependent (BOLD) functional imaging results under well-established resting-state, cue-reactivity and Go/noGO task paradigms.
# On Day 1 and Day 14, 24-four-hour blood PK samples were collected following single oral administrations of a [MPh-IR+Ond-PR2] capsule to: (1) estimate the PK parameters of the two Components (i.e., MPh-IR and Ond-PR2] by quantifying serum methylphenidate and ondansetron concentrations; and (2) determine whether or not any of these parameters change after single daily administrations for 14 days. Descriptive statistics for blood methylphenidate (MPh-IR) and ondansetron (Ond-PR2) concentrations at each time point were summarized as the mean, standard deviation and coefficient of variation. Estimation and statistical analyses of PK parameters were performed with SAS 9.3, and BABE Solution.
# CYP2D6 = CYP2D6 (Homo sapiens, UniProt P10635); conditions: cited from earlier work
# Chain of CYP2D6 (P10635 whole entry): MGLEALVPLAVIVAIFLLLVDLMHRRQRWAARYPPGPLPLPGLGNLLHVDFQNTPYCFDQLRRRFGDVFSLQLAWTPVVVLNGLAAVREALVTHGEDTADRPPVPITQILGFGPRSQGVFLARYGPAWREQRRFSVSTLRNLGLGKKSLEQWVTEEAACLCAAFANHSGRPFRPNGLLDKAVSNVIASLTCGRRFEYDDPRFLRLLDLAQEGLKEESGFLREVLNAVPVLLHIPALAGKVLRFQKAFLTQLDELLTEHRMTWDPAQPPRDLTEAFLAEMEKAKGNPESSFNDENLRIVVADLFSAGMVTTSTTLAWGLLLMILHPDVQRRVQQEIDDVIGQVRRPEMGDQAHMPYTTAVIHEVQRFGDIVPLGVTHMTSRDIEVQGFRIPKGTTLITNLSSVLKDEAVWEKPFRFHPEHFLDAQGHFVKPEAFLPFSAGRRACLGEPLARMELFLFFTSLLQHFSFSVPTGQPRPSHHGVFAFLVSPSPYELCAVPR
# [2] = cited from earlier work
# [3] = vs R(−) enantiomer of mirtazapine
structure (smiles),measurement,setting,value
"CN1CCN2c3ncccc3Cc3ccccc3C2C1 (racemic) [Mirtazapine, 1,2,3,4,10,14b-hexahydro-2-methylpyrazino[2,1-a]pyrido[2,3-c]benzazepine]",Affinity to 5-HT2C receptors,5-HT2C receptors,high affinities
same,Affinity for adrenergic α2 receptors,adrenergic α2 receptors,high affinities
same,Affinity to 5-HT1A receptors,5-HT1A receptors,minimal affinity
same,Affinity to 5-HT2A receptors,5-HT2A receptors,high affinities
same,Affinity for histamine H1 receptors,histamine H1 receptors,high affinities
same,Affinity for 5-HT3 receptors,5-HT3 receptors,high affinities
"CCCN1C[C@H](CSC)C[C@@H]2c3cccc4[nH]cc(c34)C[C@H]21 [L_P/S, pergolide]",Total LIAIM scores (ratios between post- and pre-reversal treatment scores),rat animal models of LID,No differences
"COC(=O)C(c1ccccc1)C1CCCCN1 (stereo not drawn) [Methylphenidate, methylphenidate]",Cmin (minimum blood concentration before the next administration),"[1]; Day 1, mean",0 ng
same,Kel (elimination rate constant),"[1]; Day 1, mean",0.2 h − 1
same,AUC (0-24),"[1]; Day 14, mean",21.5 ng·h
same,Cmin (minimum blood concentration before the next administration),"[1]; Day 14, mean",0 ng
same,Half life(t1/2),"[1]; Day 14, mean",3.1 h
same,Kel (elimination rate constant),"[1]; Day 14, mean",0.2 h − 1
same,AUC(0-t),"[1]; human, in vivo",21.5 ng·h/mL
same,Cmax,"[1]; human, in vivo",3.4 ng/mL
same,half-life,"[1]; human, in vivo",3.2 h
same,AUC(0-inf),"[1]; human, in vivo, AUC (0-inf), Day 1, mean",21.6 ng·h/mL
same,AUC(0-inf),"[1]; human, in vivo, AUC (0-inf), Day 14, mean",23.4 ng·h/mL
same,Tmax,"[1]; human, in vivo, Tmax, Day 1, mean",1.9 h
same,Tmax,"[1]; human, in vivo, Tmax, Day 14, mean",1.7 h
same,Cmax,"[1]; human, in vivo, po",4 ng/mL
same,"Change in Cmax, Cmin, Tmax, t½, AUC (0-24), AUC (0-inf.) and Kel between Day 1 and Day 14",[1]; once-daily [MPh-IR+Ond-PR2] for 14 days,No significant changes
"Cc1nccn1CC1CCc2c(c3ccccc3n2C)C1=O (stereo not drawn) [Ondansetron, ondansetron]",AUC (0-24),"[1]; human, in vivo",186.4 ng·h
same,AUC(0-inf),"[1]; human, in vivo",226.4 ng·h
same,"Change in Cmax, Cmin, Tmax, t½, AUC (0-24), AUC (0-inf.) and Kel between Day 1 and Day 14","[1]; human, in vivo",No significant changes
same,Cmax,"[1]; human, in vivo",12.6 ng/mL
same,Half life(t1/2),"[1]; human, in vivo",7.2 h
same,Kel (elimination rate constant),"[1]; human, in vivo",0.1 h − 1
same,Tmax,"[1]; human, in vivo",5.8 h
same,AUC(0-t),"[1]; human, in vivo, AUC (0-24)",136 ng·h/mL
same,AUC(0-inf),"[1]; human, in vivo, AUC (0-inf)",179 ng·h/mL
same,half-life,"[1]; human, in vivo, Half life(t1/2)",6.9 h
same,Tmax,"[1]; human, in vivo, Tmax",6.3 h
same,Cmax,"[1]; human, in vivo, po",11.2 ng/mL
CN1CCN2c3ncccc3Cc3ccccc3[C@H]2C1 [esmirtazapine],Affinity for 5-HT2C receptors in comparison with the R(−) enantiomer,5-HT2C receptors; [3],higher affinity
same,Affinity for α2 adrenergic receptors in comparison with the R(−) enantiomer,adrenergic α2 receptors; [3],higher affinity
same,Metabolising enzyme,CYP2D6,predominantly metabolized by CYP2D6
same,Clearance in poor metabolizers compared to extensive metabolizers,[2]; CYP2D6 phenotype,twice as low
same,Absorption in comparison with the R(−) enantiomer,[2]; enantioselective transport process in the gut wall,may be absorbed faster (but not more extensively)
